Data: BindingDB's records for patent US20250034159 (Oric Pharmaceuticals, 2025)
pIC50: −log10 of the molar value.

Legend:
[1] = target: T1, Epidermal growth factor receptor [DEL746-750,C797S] (Homo sapiens, UniProt P00533, C797S/DEL746-750); assay: Biochemical Assay Against EGFR Exon 19 Deletion/C797S Protein (EGFR d19/CS)
T1 construct: gene EGFR
Procedure: (§1) In wells A1 and A24, were added 12 μL of DMSO. […] To a well in Row A were added 12 μL of each 10 mM test compound stock (100% DMSO). […] The final intermediate dilution plate contained 4×16-point compound serial dilutions in assay buffer. The DMSO concentration was 10%. The intermediate compound dilution plate was transferred to the Bravo and the “5 uL dispense into ARP.pro” protocol was run. To the black low volume assay ready plates, were added 5 μL of 40 uM Phosphosens peptide sensor/4 mM ATP working solution to each well. […] To column 24, was added 10 μL of assay buffer. The final DMSO concentration was 2.5%.

[2] = target: Epidermal growth factor receptor [L858R,C797S] (Human, UniProt P00533, C797S/L858R); assay: Biochemical Assay Against EGFR L858R/C797S Protein (EGFR LR/CS)
Epidermal growth factor receptor [L858R,C797S], sequence (P00533 25-1210 C797S/L858R limits assumed): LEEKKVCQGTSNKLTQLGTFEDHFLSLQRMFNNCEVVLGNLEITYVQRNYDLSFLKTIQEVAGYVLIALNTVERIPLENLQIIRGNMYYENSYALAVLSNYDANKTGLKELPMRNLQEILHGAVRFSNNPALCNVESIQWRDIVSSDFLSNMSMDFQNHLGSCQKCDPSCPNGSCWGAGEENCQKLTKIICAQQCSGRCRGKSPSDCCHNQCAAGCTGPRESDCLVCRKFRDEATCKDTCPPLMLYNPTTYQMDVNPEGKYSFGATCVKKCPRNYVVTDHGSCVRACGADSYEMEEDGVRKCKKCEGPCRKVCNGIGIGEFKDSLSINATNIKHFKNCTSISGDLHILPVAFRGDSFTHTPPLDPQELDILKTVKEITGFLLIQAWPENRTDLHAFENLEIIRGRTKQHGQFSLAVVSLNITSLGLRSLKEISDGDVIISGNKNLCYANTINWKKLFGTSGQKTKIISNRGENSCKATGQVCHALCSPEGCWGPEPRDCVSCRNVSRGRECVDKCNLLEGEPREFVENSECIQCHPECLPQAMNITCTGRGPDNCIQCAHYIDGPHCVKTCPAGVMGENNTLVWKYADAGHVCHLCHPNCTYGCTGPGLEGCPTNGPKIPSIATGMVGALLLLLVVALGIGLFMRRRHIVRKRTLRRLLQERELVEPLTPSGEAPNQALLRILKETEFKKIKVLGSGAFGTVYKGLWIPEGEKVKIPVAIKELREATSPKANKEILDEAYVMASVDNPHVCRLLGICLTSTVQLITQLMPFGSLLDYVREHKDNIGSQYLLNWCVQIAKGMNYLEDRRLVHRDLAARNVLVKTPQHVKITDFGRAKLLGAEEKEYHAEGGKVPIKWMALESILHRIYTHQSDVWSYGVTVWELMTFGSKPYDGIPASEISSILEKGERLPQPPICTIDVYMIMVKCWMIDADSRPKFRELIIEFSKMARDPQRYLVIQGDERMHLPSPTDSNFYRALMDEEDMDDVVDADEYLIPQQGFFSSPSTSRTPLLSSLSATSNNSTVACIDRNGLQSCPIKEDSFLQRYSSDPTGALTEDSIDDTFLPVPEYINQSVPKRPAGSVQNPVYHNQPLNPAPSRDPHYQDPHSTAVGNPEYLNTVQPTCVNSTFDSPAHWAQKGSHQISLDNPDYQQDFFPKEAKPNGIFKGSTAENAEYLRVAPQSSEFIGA
Procedure: as §1

T1 sequence (P00533 with tags, fused parts or gaps C797S/DEL746-750 limits assumed): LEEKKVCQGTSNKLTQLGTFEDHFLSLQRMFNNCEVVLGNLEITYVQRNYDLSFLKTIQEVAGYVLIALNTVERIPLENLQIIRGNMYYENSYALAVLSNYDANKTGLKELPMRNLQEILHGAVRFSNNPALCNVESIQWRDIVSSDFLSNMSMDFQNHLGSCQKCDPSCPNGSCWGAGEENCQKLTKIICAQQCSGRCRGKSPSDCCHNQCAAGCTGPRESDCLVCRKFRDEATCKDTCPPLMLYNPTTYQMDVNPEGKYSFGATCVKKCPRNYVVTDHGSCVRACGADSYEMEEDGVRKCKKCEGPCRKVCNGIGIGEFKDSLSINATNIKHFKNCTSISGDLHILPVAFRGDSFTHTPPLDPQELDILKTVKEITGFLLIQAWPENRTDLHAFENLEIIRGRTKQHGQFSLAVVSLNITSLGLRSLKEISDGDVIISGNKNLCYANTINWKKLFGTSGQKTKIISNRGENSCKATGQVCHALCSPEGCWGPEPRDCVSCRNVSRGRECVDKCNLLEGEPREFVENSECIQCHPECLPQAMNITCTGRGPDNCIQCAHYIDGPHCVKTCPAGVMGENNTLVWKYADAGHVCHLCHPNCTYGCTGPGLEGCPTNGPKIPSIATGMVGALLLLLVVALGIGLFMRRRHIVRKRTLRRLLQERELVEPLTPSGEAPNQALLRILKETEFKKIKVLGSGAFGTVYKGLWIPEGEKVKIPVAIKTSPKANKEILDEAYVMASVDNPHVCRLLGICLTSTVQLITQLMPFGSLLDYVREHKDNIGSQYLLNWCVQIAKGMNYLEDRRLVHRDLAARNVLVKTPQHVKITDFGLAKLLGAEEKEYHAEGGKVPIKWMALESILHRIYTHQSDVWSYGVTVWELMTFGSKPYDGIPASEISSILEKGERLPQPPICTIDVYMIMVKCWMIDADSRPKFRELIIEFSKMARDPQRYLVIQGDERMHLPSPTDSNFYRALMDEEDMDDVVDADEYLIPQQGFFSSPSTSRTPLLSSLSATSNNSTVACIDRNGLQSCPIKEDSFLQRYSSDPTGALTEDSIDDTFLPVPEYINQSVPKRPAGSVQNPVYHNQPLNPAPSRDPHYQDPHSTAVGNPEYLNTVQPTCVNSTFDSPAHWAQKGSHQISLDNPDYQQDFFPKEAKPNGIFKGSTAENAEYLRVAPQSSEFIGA

Structure (SMILES) | pIC50 [1] | pIC50 [2]
O=S1(=O)CCC(n2cc(-c3ncnc4oc(-c5ccccc5)cc34)c(-c3ccc(F)cc3)n2)CC1 [US20250034159, Example 83] | 8.07 | 8.20
Fc1ccc(-c2nn(CCC(F)F)cc2-c2ccnc3oc(-c4ccccc4)cc23)cc1 [US20250034159, Example 157] | 9.24 | 
O=S1(=O)CC(n2cc(-c3ncnc4oc(C5=CCN(S(=O)(=O)C6CC6)CC5)cc34)c(-c3ccc(F)cc3)n2)C1 [US20250034159, Example 177] | 9.38 | 
Fc1ccc(-c2nn(CCOC(F)(F)F)cc2-c2ncnc3oc(-c4ccccc4)cc23)cc1 [US20250034159, Example 144] | 8.62 | 
